One block for each molecule: values may come before it.
How the values were obtained:
hERG (KCNH2) = hERG (KCNH2) (Homo sapiens, UniProt Q12809); assay: Selectivity interaction (Eurofins CEREP Diversity Profile (receptors and ion channels)) EUB0000279b KCNH2; details: at 10 µM, read-out: % of control
[1] = molecular target: Receptor-type tyrosine-protein kinase FLT3 (Homo sapiens) (UniProt P36888); assay: Selectivity interaction (KinomeScan (DiscoverX)) EUB0000607a FLT3; details: at 10 µM
[2] = molecular target: Myosin-IIIa (Homo sapiens) (UniProt Q8NEV4); assay: Selectivity interaction (KinomeScan (DiscoverX)) EUB0000607a MYO3A; details: at 10 µM
[3] = molecular target: Serine/threonine-protein kinase 24 (Homo sapiens) (UniProt Q9Y6E0); assay: Selectivity interaction (ActivX KiNativ screen (kinase selectivity in THP-1 cell lysates)) EUB0000639a STK24; assay type: subcellular; details: lysate, at 0.2 µM
Activated CDC42 kinase 1 = Activated CDC42 kinase 1 (Homo sapiens, UniProt Q07912); assay: Selectivity interaction (ProQinase) EUB0000171b TNK2
[4] = molecular target: Serine/threonine-protein kinase pim-3 (Homo sapiens) (UniProt Q86V86); assay: Selectivity interaction (KinomeScan (DiscoverX)) EUB0000695a PIM3; details: at 100 nM
[5] = molecular target: T1, Uncharacterized serine/threonine-protein kinase SBK3 (Homo sapiens) (UniProt P0C264); assay: Selectivity interaction (KinomeScan (DiscoverX)) EUB0000695a SBK3; details: at 100 nM
T1 sequence (whole entry): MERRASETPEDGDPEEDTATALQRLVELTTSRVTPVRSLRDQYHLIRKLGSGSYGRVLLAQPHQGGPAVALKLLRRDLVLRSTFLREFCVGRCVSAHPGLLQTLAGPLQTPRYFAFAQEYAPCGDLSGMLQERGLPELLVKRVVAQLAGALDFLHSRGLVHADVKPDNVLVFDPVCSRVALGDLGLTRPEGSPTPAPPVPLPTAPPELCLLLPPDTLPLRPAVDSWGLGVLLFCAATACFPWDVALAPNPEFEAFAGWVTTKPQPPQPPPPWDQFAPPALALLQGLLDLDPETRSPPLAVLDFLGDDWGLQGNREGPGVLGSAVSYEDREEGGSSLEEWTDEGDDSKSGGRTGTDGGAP

[6] = molecular target: T2, Ephrin type-A receptor 3 (Homo sapiens) (UniProt P29320); assay: Selectivity interaction (Ambit KINOMEscan and KiNATiv profiling in Jurkat cells) EUB0000090b EPHA3; assay type: cell-based; details: at 1 µM
T2 sequence (whole entry): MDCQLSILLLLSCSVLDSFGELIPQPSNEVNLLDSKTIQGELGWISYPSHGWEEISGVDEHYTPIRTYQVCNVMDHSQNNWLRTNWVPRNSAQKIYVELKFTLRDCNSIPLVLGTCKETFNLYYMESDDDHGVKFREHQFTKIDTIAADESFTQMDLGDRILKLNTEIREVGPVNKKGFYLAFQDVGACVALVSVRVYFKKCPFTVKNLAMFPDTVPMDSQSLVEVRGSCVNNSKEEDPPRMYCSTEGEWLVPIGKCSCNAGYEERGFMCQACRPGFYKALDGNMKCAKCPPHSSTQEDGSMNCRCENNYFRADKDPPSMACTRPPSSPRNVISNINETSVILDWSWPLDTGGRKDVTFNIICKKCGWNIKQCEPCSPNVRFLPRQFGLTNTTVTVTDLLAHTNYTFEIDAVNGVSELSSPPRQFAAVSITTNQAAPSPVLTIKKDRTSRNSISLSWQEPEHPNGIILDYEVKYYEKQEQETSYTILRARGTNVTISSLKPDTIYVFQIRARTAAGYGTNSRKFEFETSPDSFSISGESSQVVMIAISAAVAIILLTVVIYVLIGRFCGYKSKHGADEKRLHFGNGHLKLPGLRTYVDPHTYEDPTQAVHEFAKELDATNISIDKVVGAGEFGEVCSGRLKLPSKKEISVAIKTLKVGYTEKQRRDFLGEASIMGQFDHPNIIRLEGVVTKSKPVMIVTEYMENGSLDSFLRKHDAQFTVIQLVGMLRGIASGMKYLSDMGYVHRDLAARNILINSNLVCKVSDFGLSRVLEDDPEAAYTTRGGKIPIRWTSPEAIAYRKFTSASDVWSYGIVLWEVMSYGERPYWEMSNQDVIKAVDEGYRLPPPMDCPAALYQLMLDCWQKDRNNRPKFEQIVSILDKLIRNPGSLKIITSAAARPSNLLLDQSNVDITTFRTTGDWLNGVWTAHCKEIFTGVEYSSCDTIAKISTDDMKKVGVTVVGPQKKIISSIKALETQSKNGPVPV

[7] = molecular target: T3, Ephrin type-A receptor 6 (Homo sapiens) (UniProt Q9UF33); assay: Selectivity interaction (KinomeScan (DiscoverX)) EUB0000092b EPHA6; details: at 10 µM
T3 sequence (whole entry): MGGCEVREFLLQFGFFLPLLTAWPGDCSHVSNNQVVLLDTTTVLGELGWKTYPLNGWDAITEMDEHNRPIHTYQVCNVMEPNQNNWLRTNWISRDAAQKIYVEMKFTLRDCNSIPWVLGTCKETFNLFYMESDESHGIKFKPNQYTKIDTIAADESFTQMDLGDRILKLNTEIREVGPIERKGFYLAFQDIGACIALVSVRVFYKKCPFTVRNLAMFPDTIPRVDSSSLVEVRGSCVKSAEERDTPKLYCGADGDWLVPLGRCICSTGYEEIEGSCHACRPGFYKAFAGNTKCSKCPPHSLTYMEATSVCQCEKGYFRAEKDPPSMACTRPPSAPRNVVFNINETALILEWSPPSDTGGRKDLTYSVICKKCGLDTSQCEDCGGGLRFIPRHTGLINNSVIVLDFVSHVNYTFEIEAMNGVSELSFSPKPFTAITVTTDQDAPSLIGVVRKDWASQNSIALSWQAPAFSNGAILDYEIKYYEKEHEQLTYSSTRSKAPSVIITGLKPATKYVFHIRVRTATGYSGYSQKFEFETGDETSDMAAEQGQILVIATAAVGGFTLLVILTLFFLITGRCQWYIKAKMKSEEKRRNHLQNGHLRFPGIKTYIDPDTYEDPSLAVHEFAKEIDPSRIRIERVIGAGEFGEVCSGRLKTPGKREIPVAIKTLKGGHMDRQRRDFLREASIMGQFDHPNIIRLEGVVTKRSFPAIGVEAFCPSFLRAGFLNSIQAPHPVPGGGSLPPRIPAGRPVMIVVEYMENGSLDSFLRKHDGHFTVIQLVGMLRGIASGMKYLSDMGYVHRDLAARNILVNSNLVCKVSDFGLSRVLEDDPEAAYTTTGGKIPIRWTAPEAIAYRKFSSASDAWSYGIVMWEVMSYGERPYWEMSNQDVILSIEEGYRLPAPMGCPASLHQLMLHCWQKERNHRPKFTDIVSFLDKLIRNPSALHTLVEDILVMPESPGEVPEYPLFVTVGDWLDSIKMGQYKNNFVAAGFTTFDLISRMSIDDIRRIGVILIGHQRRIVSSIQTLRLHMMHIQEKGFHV

[8] = molecular target: RAC-gamma serine/threonine-protein kinase (Homo sapiens, UniProt Q9Y243); details: at 10 µM
RAC-gamma serine/threonine-protein kinase, sequence (Q9Y243 whole entry): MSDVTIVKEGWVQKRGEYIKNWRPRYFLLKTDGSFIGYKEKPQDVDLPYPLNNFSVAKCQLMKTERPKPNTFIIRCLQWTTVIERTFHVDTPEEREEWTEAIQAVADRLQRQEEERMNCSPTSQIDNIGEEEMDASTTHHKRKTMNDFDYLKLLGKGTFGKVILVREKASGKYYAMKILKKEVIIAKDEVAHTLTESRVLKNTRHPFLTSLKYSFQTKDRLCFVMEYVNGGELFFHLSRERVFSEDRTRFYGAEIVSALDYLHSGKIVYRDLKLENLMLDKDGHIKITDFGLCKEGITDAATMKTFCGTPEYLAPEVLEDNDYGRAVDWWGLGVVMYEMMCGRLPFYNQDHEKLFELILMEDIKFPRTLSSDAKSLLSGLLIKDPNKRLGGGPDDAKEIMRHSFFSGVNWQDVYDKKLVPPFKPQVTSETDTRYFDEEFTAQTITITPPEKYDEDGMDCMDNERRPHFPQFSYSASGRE

Activated CDC42 kinase 1, sequence (Q07912 whole entry, looked up): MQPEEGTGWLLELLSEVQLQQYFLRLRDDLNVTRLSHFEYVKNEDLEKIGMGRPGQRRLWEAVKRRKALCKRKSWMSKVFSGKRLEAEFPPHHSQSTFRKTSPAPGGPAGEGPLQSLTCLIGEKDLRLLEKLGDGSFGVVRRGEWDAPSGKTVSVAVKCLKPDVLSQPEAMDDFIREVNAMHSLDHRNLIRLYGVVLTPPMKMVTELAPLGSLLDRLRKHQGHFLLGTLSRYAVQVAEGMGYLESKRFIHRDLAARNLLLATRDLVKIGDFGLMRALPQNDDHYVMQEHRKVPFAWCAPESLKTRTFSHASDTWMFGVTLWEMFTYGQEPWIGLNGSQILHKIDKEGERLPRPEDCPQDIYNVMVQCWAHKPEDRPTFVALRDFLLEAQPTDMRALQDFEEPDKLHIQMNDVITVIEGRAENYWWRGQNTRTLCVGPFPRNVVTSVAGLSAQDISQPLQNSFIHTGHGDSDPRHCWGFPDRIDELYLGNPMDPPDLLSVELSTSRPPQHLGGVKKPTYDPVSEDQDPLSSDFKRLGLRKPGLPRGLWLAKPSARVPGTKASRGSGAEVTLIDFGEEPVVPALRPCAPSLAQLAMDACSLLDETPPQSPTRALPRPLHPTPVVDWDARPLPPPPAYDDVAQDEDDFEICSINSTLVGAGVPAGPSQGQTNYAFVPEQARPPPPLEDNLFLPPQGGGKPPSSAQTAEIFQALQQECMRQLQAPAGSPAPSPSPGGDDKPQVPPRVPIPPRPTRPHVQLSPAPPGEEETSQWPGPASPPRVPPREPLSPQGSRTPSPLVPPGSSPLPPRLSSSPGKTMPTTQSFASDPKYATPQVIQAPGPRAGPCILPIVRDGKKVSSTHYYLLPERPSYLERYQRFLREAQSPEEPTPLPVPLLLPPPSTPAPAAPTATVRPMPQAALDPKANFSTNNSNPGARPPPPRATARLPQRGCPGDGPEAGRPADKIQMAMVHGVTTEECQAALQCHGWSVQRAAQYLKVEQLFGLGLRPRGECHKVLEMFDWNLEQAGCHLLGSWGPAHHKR
Myosin-IIIa (Homo sapiens), sequence (Q8NEV4 whole entry): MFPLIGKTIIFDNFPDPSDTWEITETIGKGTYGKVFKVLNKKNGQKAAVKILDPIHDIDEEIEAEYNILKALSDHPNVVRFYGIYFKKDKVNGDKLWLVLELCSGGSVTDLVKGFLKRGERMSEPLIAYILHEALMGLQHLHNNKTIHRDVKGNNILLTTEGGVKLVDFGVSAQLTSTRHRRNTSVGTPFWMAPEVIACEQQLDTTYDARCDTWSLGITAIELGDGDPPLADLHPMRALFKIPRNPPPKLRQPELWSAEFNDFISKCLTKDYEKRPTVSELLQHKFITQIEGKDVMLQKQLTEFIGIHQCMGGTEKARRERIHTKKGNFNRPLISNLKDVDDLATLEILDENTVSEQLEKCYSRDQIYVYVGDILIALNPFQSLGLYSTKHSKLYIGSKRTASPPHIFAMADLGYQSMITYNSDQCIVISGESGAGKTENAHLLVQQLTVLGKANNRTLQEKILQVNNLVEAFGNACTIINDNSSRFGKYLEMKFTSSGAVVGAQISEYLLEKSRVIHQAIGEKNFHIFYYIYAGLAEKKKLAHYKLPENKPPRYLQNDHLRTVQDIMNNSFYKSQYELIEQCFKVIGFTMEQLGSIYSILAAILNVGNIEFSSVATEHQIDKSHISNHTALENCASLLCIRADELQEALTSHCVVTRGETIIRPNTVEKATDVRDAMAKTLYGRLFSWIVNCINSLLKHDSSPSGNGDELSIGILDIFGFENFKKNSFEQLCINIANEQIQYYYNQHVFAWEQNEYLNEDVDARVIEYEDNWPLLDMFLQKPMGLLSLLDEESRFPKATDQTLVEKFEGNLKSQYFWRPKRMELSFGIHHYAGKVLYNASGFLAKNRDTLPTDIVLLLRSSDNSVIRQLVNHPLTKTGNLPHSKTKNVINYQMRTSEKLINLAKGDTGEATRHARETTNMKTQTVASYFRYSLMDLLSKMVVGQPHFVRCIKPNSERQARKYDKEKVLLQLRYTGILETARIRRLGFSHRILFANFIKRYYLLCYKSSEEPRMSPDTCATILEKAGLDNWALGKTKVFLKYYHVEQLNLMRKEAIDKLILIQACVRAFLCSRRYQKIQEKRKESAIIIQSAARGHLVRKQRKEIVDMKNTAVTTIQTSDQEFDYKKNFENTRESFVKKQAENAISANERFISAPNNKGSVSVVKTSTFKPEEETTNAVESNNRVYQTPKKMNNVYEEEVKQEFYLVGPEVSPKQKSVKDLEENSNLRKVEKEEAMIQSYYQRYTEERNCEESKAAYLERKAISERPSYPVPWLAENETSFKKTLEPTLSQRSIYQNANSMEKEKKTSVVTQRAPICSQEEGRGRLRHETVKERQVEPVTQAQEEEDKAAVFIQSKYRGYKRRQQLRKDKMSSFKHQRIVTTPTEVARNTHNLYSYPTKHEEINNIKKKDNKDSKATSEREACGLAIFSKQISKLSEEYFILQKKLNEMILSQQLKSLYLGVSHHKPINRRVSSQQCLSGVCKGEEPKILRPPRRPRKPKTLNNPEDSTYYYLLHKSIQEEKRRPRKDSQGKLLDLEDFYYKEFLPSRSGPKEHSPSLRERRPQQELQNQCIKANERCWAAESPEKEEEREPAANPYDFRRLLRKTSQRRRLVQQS
Receptor-type tyrosine-protein kinase FLT3 (Homo sapiens), sequence (P36888 whole entry): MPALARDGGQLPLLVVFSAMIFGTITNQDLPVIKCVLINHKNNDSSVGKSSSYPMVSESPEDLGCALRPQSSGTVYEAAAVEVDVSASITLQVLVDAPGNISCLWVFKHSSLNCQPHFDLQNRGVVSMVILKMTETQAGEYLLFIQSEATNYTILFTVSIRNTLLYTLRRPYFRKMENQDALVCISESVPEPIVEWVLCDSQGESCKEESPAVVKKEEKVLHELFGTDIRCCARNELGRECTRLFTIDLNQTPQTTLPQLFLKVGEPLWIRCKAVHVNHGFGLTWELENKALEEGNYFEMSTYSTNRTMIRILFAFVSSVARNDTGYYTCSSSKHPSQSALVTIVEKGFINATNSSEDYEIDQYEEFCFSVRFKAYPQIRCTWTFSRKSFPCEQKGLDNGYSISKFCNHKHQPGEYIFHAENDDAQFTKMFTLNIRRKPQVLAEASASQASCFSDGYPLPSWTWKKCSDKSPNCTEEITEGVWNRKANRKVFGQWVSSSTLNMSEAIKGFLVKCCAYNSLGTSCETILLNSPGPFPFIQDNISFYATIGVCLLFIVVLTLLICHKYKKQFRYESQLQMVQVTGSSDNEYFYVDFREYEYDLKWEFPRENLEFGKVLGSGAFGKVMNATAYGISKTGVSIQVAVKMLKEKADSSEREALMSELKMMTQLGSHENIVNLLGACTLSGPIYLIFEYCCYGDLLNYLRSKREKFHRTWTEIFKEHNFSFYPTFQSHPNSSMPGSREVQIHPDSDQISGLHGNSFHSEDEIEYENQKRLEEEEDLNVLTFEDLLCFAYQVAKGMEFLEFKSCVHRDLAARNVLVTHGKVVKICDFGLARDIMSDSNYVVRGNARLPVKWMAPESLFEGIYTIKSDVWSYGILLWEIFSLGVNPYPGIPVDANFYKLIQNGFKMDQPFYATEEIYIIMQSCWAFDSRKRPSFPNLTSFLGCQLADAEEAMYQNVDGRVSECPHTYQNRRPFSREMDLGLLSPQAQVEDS
Serine/threonine-protein kinase 24 (Homo sapiens), sequence (Q9Y6E0 whole entry, looked up): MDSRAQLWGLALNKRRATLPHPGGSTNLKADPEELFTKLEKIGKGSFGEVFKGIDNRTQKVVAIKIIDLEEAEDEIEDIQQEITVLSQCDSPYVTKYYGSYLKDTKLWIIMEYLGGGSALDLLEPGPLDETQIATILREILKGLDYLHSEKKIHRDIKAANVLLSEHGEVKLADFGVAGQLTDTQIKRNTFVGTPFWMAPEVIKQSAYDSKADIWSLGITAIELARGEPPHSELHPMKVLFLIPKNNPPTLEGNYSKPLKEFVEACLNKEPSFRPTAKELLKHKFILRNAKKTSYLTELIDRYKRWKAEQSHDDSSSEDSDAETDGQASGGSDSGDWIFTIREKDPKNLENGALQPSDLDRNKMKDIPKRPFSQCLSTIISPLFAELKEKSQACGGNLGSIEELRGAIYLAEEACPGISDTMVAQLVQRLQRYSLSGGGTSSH

Structure (SMILES): CC(=O)c1cc(-c2ccccc2OCC2CC2)c2ncccn12
- activity (hERG (KCNH2)): 111%

Structure (SMILES): CNC(=O)Nc1ccc(-c2nc(N3CC4CCC(C3)O4)c3cnn(C4CCC5(CC4)OCCO5)c3n2)cc1
- % of control [1]: 77%
- % of control [2]: 52%

- % of inhibition [3]: 5.6%
Structure (SMILES): CC[C@@H]1[C@H](F)C(=O)N[C@@H]1COc1nccc2cc(C(N)=O)c(OC)cc12 [ZIMLOVISERTIB]

- % of control (Activated CDC42 kinase 1; at 1 µM): 100%
- % of control (Activated CDC42 kinase 1; at 5 µM): 95%
Structure (SMILES): C=CC(=O)Nc1cccc(C(=O)Nc2ccc(Nc3cc(-c4[nH]c(SC)nc4C)ccn3)cc2)c1

Structure (SMILES): Cc1cc(F)c(C(=O)Nc2cccc(-c3nncn3C(C)C)n2)cc1-n1cnc(C2CC2)c1
- % of control [4]: 92%
- % of control [5]: 85%

Structure (SMILES): CN(C)C/C=C/C(=O)Nc1ccc(C(=O)N2CCCC(Nc3ncc(Cl)c(-c4c[nH]c5ccccc45)n3)C2)cc1 (stereo unspecified)
- % of control [6]: 89%

Structure (SMILES): CCC(=O)N1CCN(c2ccc(-n3c(=O)ccc4cnc5ccc(-c6cnc7ccccc7c6)cc5c43)cc2C(F)(F)F)CC1
- % of control [7]: 75%

Structure (SMILES): Cc1cc([C@@H](C)Nc2ccccc2C(=O)O)c2nc(N3CCOCC3)cc(=O)n2c1 [AZD-6482]
- % of control [8]: 100%

From ChEMBL document CHEMBL5465560, “Selectivity Literature for EUbOPEN Chemogenomic Library” (2024)
